The values below come from patent US4645769A, “1-oxa-1-dethia-cephalosporin compounds and antibacterial agent comprising the same” (Merck & Co., Inc., priority 1985, dated 1987).

The subject of one data set is Proteus morganii 1510. As to the kind of experiment: Minimum Inhibitory Concentration (MIC), antibacterial spectrum in vitro. Format: cell-based. The settings on record: Morganella morganii; Proteus morganii 1510; read-out: Minimum Inhibitory Concentration (MIC).
The subject of data set [1] is Pseudomonas aeruginosa E-2. Described as above. The class given is cell-based. The note with it: E2; Pseudomonas aeruginosa E-2; read-out: Minimum Inhibitory Concentration (MIC).
Another data set deals with Streptococcus faecalis. Put plainly: Antibacterial activity against Streptococcus faecalis (statement in words). Format: cell-based.
In data set [2] the test system is Staphylococcus aureus 209 P JC-1. Put plainly: Minimum Inhibitory Concentration (MIC), antibacterial spectrum in vitro. Format: cell-based. The note with it: 209PJC1; Staphylococcus aureus 209 P JC-1; read-out: Minimum Inhibitory Concentration (MIC).
Data set [3] deals with Streptococcus faecalis ATCC 8043. Described as above. The note with it: Enterococcus faecalis, ATCC8043; Streptococcus faecalis ATCC 8043; read-out: Minimum Inhibitory Concentration (MIC). The class given is cell-based.
For the next data set, the system named is Pseudomonas aeruginosa. As to the kind of experiment: Antibacterial activity against Pseudomonas aeruginosa (from Table 1). Format: cell-based. The settings on record: in words.
In data set [4] the test system is Citrobacter freundii GN-346. Put plainly: Minimum Inhibitory Concentration (MIC), antibacterial spectrum in vitro. The class given is cell-based. The note with it: GN346; Citrobacter freundii GN-346; read-out: Minimum Inhibitory Concentration (MIC).
Data set [5] deals with Salmonella typhimurium LT-2. The data set is described as above. Format: cell-based. The settings on record: Salmonella enterica; Salmonella typhimurium LT-2; read-out: Minimum Inhibitory Concentration (MIC).
Data set [6] relates to Pseudomonas aeruginosa MB-3833. Described as above. The class given is cell-based. The settings on record: MB3833; Pseudomonas aeruginosa MB-3833; read-out: Minimum Inhibitory Concentration (MIC).
For data set [7], the system named is Klebsiella pneumoniae PCI 602. The description is as above. The settings on record: PCI602; Klebsiella pneumoniae PCI 602; read-out: Minimum Inhibitory Concentration (MIC). Format: cell-based.
Data set [8] relates to Esherichia coli NIHJ JC-2. The description is as above. Format: cell-based.
A short description of data set [9]: Concentration in Blood Serum after subcutaneous dosing (bioassay using Escherichia coli). Format: in vivo. The note with it: mouse, sc, 25 mg/Kg subcutaneously, mice. How it is done:
The concentration of the compound in the serum was determined by bioassay using Escherichia coli as assay microorganism.

A further data set relates to Esherichia coli TEM DC-2. Put plainly: Minimum Inhibitory Concentration (MIC), antibacterial spectrum in vitro. Format: cell-based. The settings on record: read-out: Minimum Inhibitory Concentration (MIC).
The subject of another data set is Enterobacter cloacae P99. The data set is described as above. Format: cell-based. The settings on record: P99, read-out: Minimum Inhibitory Concentration (MIC).
Data set [10] deals with Pseudomonas aeruginosa RPL-11. The data set is described as above. Format: cell-based. The settings on record: RPL11; Pseudomonas aeruginosa RPL-11; read-out: Minimum Inhibitory Concentration (MIC).

The structures appear in SMILES notation. Values after ≈ are worked out from the molar mass of the structure shown. Structures can show the parent of a compound that is named as a salt. A value given as a limit tells only on which side of the number the result lay.

For the compound `CON=C(C(=O)NC1C(=O)N2C(C(=O)[O-])=C(CSc3cc[n+](CC(F)(F)F)cc3)C(C)OC12)c1csc(N)n1` [Compound 6, (6R,7R)-7-((Z)-2-(2-Aminothiazole-4-yl)-2-methoxyiminoacetamide)-(2S)-2-methyl-3-(1-(2,2,2-trifluoroethyl)pyridinium-4-ylthiomethyl)-1-oxa-1-dethiaceph-3-em-4-carboxylate], the MIC with Proteus morganii 1510 was 6.25 µg/mL (≈ 10.7 µM); in data set [1], 3.13 µg/mL (≈ 5.34 µM); in data set [2], 0.2 µg/mL (≈ 0.341 µM); in data set [3] it was 12.5 µg/mL (≈ 21.3 µM); in data set [4], 50 µg/mL (≈ 85.2 µM); in [5] it was below 0.025 µg/mL. For the same compound, the values for the MIC in [6], in [7] and in data set [8] were 3.13 µg/mL (≈ 5.34 µM), 0.1 µg/mL (≈ 0.17 µM) and 0.05 µg/mL (≈ 0.0852 µM), respectively. In the data set on Streptococcus faecalis, the “effectiveness against Streptococcus faecalis” value is given as “effective against Streptococcus faecalis”. In addition, in the data set with Pseudomonas aeruginosa, the “effectiveness against Pseudomonas aeruginosa” value was “effective against Pseudomonas aeruginosa”.
As to `CON=C(C(=O)NC1C(=O)N2C(C(=O)[O-])=C(CSc3cc[n+](CC(=O)O)cc3)C(C)OC12)c1csc(N)n1` [Compound 7, (6R,7R)-7-((Z)-2-(2-Aminothiazole-4-yl)-2-methoxyiminoacetamide)-(2S)-2-methyl-3-(1-carboxymethylpyridinium-4-ylthiomethyl)-1-oxa-1-dethiaceph-3-em-4-carboxylate (Sodium Salt)], the MIC was 0.78 µg/mL in the data set with Proteus morganii 1510; 12.5 µg/mL in data set [1]; 0.39 µg/mL in [2]; 12.5 µg/mL in data set [3]; 6.25 µg/mL in data set [4]; below 0.025 µg/mL in [5]. The figures for the MIC in [6], in [7] and in data set [8] were 12.5 µg/mL, 0.025 µg/mL and below 0.025 µg/mL, respectively. In the data set on Streptococcus faecalis, the “effectiveness against Streptococcus faecalis” value was “effective against Streptococcus faecalis”.
Consider `CCON=C(C(=O)NC1C(=O)N2C(C(=O)[O-])=C(CSc3cc[n+](CC(=O)O)cc3)C(C)OC12)c1csc(N)n1` [Compound 8, (6R,7R)-7(Z)-2-(2-Aminothiazole-4-yl)-2-ethoxyiminoacetamide)-(2S)-2-methyl-3-(1-carboxymethylpyridinium-4-ylthiomethyl)-1-oxa-1-dethiaceph-3-em-4-carboxylate (Sodium Salt)], for which the MIC came out at 0.78 µg/mL with Proteus morganii 1510; 12.5 µg/mL in [1]; 0.39 µg/mL in [2]; 6.25 µg/mL in [3]; 6.25 µg/mL in [4]; 0.05 µg/mL in [5]. The MIC in data set [6] is 12.5 µg/mL; in data set [7] it was 0.05 µg/mL; in [8], 0.1 µg/mL. Besides, the “effectiveness against Streptococcus faecalis” value with Streptococcus faecalis is “effective against Streptococcus faecalis”.
Consider `CC1OC2C(NC(=O)C(=NOCC(=O)O)c3csc(N)n3)C(=O)N2C(C(=O)[O-])=C1CSc1cc[n+](CC(=O)O)cc1` [Compound 9, (6R,7R)-7-((Z)-2-(2-Aminothiazole-4-yl)-2-carboxymethoxyiminoacetamide)-(2S)-2-methyl-3-(1-carboxymethylpyridinium-4-ylthiomethyl)-1-oxa-1-dethiaceph-3-em-4-carboxylate (Sodium Salt)], for which the MIC was 0.78 µg/mL with Proteus morganii 1510; 3.13 µg/mL in data set [1]; 6.25 µg/mL in data set [2]; 50 µg/mL in data set [3]; 12.5 µg/mL in data set [4]; below 0.025 µg/mL in data set [5]. For the same compound, the MIC worked out at 3.13 µg/mL in data set [6], 0.1 µg/mL in data set [7] and 0.1 µg/mL in data set [8]. Further, in data set [9] (1/2 hour), the concentration at 0.5 h amounted to 25000 ng/mL. This compound also came in with a concentration at 0.25 h in data set [9] (1/4 hour) of 32000 ng/mL. Besides, the concentration at 5 min in data set [9] (1/12 hour) is 36000 ng/mL. In data set [9] (1 hour), the concentration at 1 h amounted to 5100 ng/mL. Moreover, the “effectiveness against Pseudomonas aeruginosa” value with Pseudomonas aeruginosa is “effective against Pseudomonas aeruginosa”.
Take `CON=C(C(=O)NC1C(=O)N2C(C(=O)[O-])=C(CSc3cc[n+](C)cc3)COC12)c1csc(N)n1` [Compound 10, (6R,7R)-7-((Z)-2-(2-Aminothiazole-4-yl)-2-methoxyiminoacetamide)-3-(1-methylpyridinium-4-yl-thiomethyl)-1-oxa-1-dethiaceph-3-em-4-carboxylate]: the MIC was 1.56 µg/mL (≈ 3.09 µM) in the data set with Proteus morganii 1510; 25 µg/mL (≈ 49.5 µM) in [1]; 0.1 µg/mL (≈ 0.198 µM) in [2]; 1.56 µg/mL (≈ 3.09 µM) in data set [3]; 1.56 µg/mL (≈ 3.09 µM) in data set [4]; below 0.025 µg/mL in data set [5]. Further, the MIC in data set [6] is 6.25 µg/mL (≈ 12.4 µM); in [7], 0.025 µg/mL (≈ 0.0495 µM); in data set [8], below 0.025 µg/mL. Also, the “effectiveness against Streptococcus faecalis” value in the data set on Streptococcus faecalis was “effective against Streptococcus faecalis”.
As to `CON=C(C(=O)NC1C(=O)N2C(C(=O)[O-])=C(CSc3cc[n+](CC(=O)O)cc3)COC12)c1csc(N)n1` [Compound 11, (6R,7R)-7-((Z)-2-(2-Aminothiazole-4-yl)-2-methoxyiminoacetamide)-3-(1-carboxymethylpyridinium-4-yl-thiomethyl)-1-oxa-1-dethiaceph-3-em-4-carboxylate (Sodium Salt)], the MIC in the data set with Proteus morganii 1510 was 6.2 µg/mL; in data set [1], 50 µg/mL; in data set [2] it was 0.39 µg/mL; in [3] it was 0.78 µg/mL; in [4], 12.5 µg/mL; in data set [5] it was below 0.025 µg/mL. Further, the values for the MIC in data set [6], in [7] and in data set [8] were 25 µg/mL, 0.025 µg/mL and below 0.025 µg/mL, respectively. Besides, the “effectiveness against Streptococcus faecalis” value in the data set with Streptococcus faecalis was “effective against Streptococcus faecalis”.
For the compound `CCON=C(C(=O)NC1C(=O)N2C(C(=O)[O-])=C(CSc3cc[n+](CC(=O)O)cc3)COC12)c1csc(N)n1` [Compound 12, (6R,7R)-7-((Z)-2-(2-Aminothiazole-4-yl)-2-ethoxyiminoacetamido)-3-(1-carboxymethylpyridinium-4-ylthiomethyl)-1-oxa-1-dethiaceph-3-em-4-carboxylate (Sodium Salt)], the MIC with Proteus morganii 1510 is 12.5 µg/mL; in data set [1], 25 µg/mL; in [2] it was 0.39 µg/mL; in [3] it was 6.25 µg/mL; in data set [4], 12.5 µg/mL; in [5], below 0.025 µg/mL. The MIC is 12.5 µg/mL in data set [6], 0.025 µg/mL in [7] and below 0.025 µg/mL in data set [8]. In addition, in the data set with Streptococcus faecalis, the “effectiveness against Streptococcus faecalis” value was “effective against Streptococcus faecalis”.
With `C[n+]1ccc(SCC2=C(C(=O)[O-])N3C(=O)C(NC(=O)C(=NOCC(=O)O)c4csc(N)n4)C3OC2)cc1` [Compound 13, (6R,7R)-7-((Z)-2-(2-Aminothiazole-4-yl)-2-carboxymethoxyiminoacetamide)-3-(1-methylpyridinium-4-ylthiomethyl)-1-oxa-1-dethiaceph-3-em-4-carboxylate (Sodium Salt)], the MIC with Proteus morganii 1510 is 1.56 µg/mL; in [1] it was 6.25 µg/mL; in [2] it was 1.56 µg/mL; in the data set on Esherichia coli TEM DC-2 it was 1 µg/mL; in [3], 50 µg/mL; in [4] it was 6.25 µg/mL. For the same compound, the MIC in [5] is below 0.025 µg/mL; in the data set with Enterobacter cloacae P99 it was 64 µg/mL; in [6], 6.25 µg/mL; in [7], 25 µg/mL; in data set [8] it was below 0.025 µg/mL; in data set [10] it was 128 µg/mL.
